This is an account of results in US20030104507A1, “Method for detection of ATP” (priority 2001, published 2003).

The subject of this experiment is endogenous ATPase of L929 cell lysate. The experiment can be described thus: ATPase inhibition at 22° C. and 37° C. by buffered detergent solution with 1% DTAB. The format is biochemical. As to conditions: up to five hours. As to the method:
Cell lysate was prepared as described in Example 1. The ability of 1% DTAB to inhibit endogenous ATPase (i.e., ATPase present in a sample) was measured in a complete reagent composition over time at both 22° C. (room temperature) and 37° C. Three cell lysate samples were prepared. Sample 1 contained 4.0 ml L929 cell lysate plus 4.0 ml 25 mM Hepes, pH 7.5. Sample 2 contained 4.0 ml L929 cell lysate plus 4.0 ml buffered detergent solution (40 mM Citrate (pH 6.0), 110 mM MES (pH 6.0), 450 mM KPO4 (pH 6.0), 2.0 mM EDTA, 0.2% Mazu DF-204 (PPG Industries), 2.0 mM NaF, 1.0% DTAB and 2% THESIT—final pH of the buffered detergent solution adjusted to 6.0). Sample 3 contained 4.0 ml DMEM/F12 media (no serum) containing 0.1 μM ATP plus 4.0 ml 25 mM Hepes (pH 7.5). The samples were divided in half; half was incubated at 22° C., half was incubated at 37° C. After 10 minutes of incubation in their respective water baths to allow the solution at 37° C. to reach that temperature (this point is referred to as time=10 min.), 100 μl of each sample was transferred independently to a well of a 96-well luminometer plate in quadruplicate. To each 100 μl sample was added 20 μl of a solution containing luciferin (12.5 mM)/luciferase (200 μg/ml LucPpe2m146)/MgSO4 (50 mM) solution. The resulting relative light units were measured on a Dynex luminometer using 0.5 second reads. […]

In the case of `CCCCCCCCCCCC[N+](C)(C)C.[Br-]` [DTAB, dodecyltrimethylammonium bromide], the “loss of ATP (inhibition of ATPase endogenous to the sample)” value is “no loss of ATP” (22° C.) and “minimal loss” (37° C.).
